Assay results as given in article PMC8161026, “Synthesis and Anticancer Activity Evaluation of 5-[2-Chloro-3-(4-nitrophenyl)-2-propenylidene]-4-thiazolidinones” (Molecules, 2021).

Test system: breast cancer lines MCF-7 and MDA-MB-231
Test: MTT cell viability assay, both breast cancer lines
Format: cell-based
Details: Homo sapiens; MCF-7 and MDA-MB-231, MTT; read-out: GI50 level
Procedure: In the second stage of the research, Ciminalum-thiazolidinone hybrids were investigated for antitumor activity on the lines of gastric cancer (AGS), human colon cancer (DLD-1), and breast cancers (MCF-7 and MDA-MB-231). The study was performed in the MTT assay according to the method described previously. The studied cancer line was sensitive to the action of the studied compounds that inhibited its growth in micromolar ranges of GI50. The hit compounds that inhibited the growth of all four cancer lines with the lowest GI50 values were [5-[2-chloro-3-(4-nitrophenyl)prop-2-enylidene]-rhodanines 2c, 2d, 2h, and 2i (Table 4).

`O=C(O)CCN1C(=O)/C(=C/C(Cl)=C/c2ccc([N+](=O)[O-])cc2)SC1=S` [Compound 2h, 3-{5-[(Z,2Z)-2-Chloro-3-(4-nitrophenyl)-2-propenylidene]-4-oxo-2-thioxothiazolidin-3-yl}propanoic acid] showed a GI50 of 950 to 1740 nM.
